What was measured:
Assay type in all cases: in vivo
[1] = tested on: Abutilon theophrasti; test: Pre-emergence herbicidal action against ABUTH; settings: visual score after 3 weeks vs untreated controls
Method in brief: (§1)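 Greenhouse pots of sandy loam held seeds covered with soil, onto which the compound was applied before emergence. An aqueous suspension or emulsion of WP or EC was used at 600 to 800 l/ha with 0.2% wetting agent. Percent damage was judged visually at 3 weeks.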

[2] = tested on: Alopecurus myosuroides; test: Pre-emergence herbicidal action against ALOMY; settings: visual score after 3 weeks vs untreated controls
Method in brief: as §1

[3] = tested on: Amaranthus retroflexus; test: Pre-emergence herbicidal action against AMARE; settings: visual score after 3 weeks vs untreated controls
Method in brief: as §1

[4] = tested on: Avena fatua; test: Pre-emergence herbicidal action against AVEFA; settings: visual score after 3 weeks vs untreated controls
Method in brief: as §1

[5] = tested on: Cyperus esculentus; test: Pre-emergence herbicidal action against CYPES; settings: visual score after 3 weeks vs untreated controls
Method in brief: as §1

[6] = tested on: Echinochloa crus-galli; test: Pre-emergence herbicidal action against ECHCG; settings: 320 g/ha; visual score after 3 weeks vs untreated controls
Method in brief: as §1

[7] = tested on: Matricaria inodora; test: Pre-emergence herbicidal action against MATIN; settings: visual score after 3 weeks vs untreated controls
Method in brief: as §1

[8] = tested on: Hordeum murinum; test: Pre-emergence herbicidal action against HORMU; settings: 320 g/ha; visual score after 3 weeks vs untreated controls
Method in brief: as §1

[9] = tested on: Lolium rigidum; test: Pre-emergence herbicidal action against LOLRI; settings: 320 g/ha
Method in brief: as §1

[10] = tested on: Polygonum convolvulus; test: Pre-emergence herbicidal action against POLCO
Method in brief: as §1

[11] = tested on: Setaria viridis; test: Pre-emergence herbicidal action against SETVI
Method in brief: as §1

[12] = tested on: Stellaria media; test: Pre-emergence herbicidal action against STEME
Method in brief: as §1

[13] = tested on: Veronica persica; test: Pre-emergence herbicidal action against VERPE
Method in brief: as §1

[14] = tested on: Viola tricolor; test: Pre-emergence herbicidal action against VIOTR; settings: 320 g/ha
Method in brief: as §1

[15] = tested on: Abutilon theophrasti; test: Post-emergence herbicidal action against ABUTH
Method in brief: (§2)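 A WP or EC formulation diluted in water with 0.2% wetting agent was sprayed at 600 to 800 l/ha onto one-leaf-stage plants grown in sandy loam. About 3 weeks later, action was rated visually in percent, 100% being dead plants.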

[16] = tested on: Alopecurus myosuroides; test: Post-emergence herbicidal action against ALOMY
Method in brief: as §2

[17] = tested on: Amaranthus retroflexus; test: Post-emergence herbicidal action against AMARE; settings: visual assessment about 3 weeks after treatment
Method in brief: as §2

[18] = tested on: Avena fatua; test: Post-emergence herbicidal action against AVEFA; settings: visual assessment about 3 weeks after treatment
Method in brief: as §2

[19] = tested on: Cyperus esculentus; test: Post-emergence herbicidal action against CYPES; settings: 80 g/ha, visual assessment about 3 weeks after treatment
Description: (§3) Seeds of monocotyledonous and dicotyledonous weed and crop plants are laid out in sandy loam soil in wood-fiber pots, covered with soil and cultivated in a greenhouse under good growth conditions. 2 to 3 weeks after sowing, the test plants are treated at the one-leaf stage. The compounds of the invention, formulated in the form of wettable powders (WP) or as emulsion concentrates (EC), are then sprayed onto the green parts of the plants in the form of an aqueous suspension or emulsion at a water application rate equivalent to 600 to 800 l/ha, with addition of 0.2% wetting agent. After the test plants have been left to stand in the greenhouse under optimal growth conditions for about 3 weeks, the action of the preparations is assessed visually in comparison to untreated controls (herbicidal action in percent (%): 100% activity=the plants have died, 0% activity=like control plants). […] The tables below illustrate, in an illustrative manner, the post-emergence herbicidal action of the compounds of the invention, the herbicidal activity being stated in percent.

[20] = tested on: Echinochloa crus-galli; test: Post-emergence herbicidal action against ECHCG; settings: visual assessment about 3 weeks after treatment
Method in brief: as §2

[21] = tested on: Matricaria inodora; test: Post-emergence herbicidal action against MATIN; settings: visual assessment about 3 weeks after treatment
Method in brief: as §2

[22] = tested on: Pharbitis purpurea; test: Post-emergence herbicidal action against PHBPU; settings: visual assessment about 3 weeks after treatment
Method in brief: as §2

[23] = tested on: Lolium rigidum; test: Post-emergence herbicidal action against LOLRI; settings: 80 g/ha
Description: as §3

[24] = tested on: Polygonum convolvulus; test: Post-emergence herbicidal action against POLCO; settings: 80 g/ha, visual assessment about 3 weeks after treatment
Method in brief: as §2

[25] = tested on: Setaria viridis; test: Post-emergence herbicidal action against SETVI; settings: visual assessment about 3 weeks after treatment
Method in brief: as §2

[26] = tested on: Stellaria media; test: Post-emergence herbicidal action against STEME; settings: visual assessment about 3 weeks after treatment
Method in brief: as §2

[27] = tested on: Veronica persica; test: Post-emergence herbicidal action against VERPE; settings: visual assessment about 3 weeks after treatment
Method in brief: as §2

[28] = tested on: Viola tricolor; test: Post-emergence herbicidal action against VIOTR
Method in brief: as §2

CCn1nnnc1NC(=O)c1ccc(C(F)(F)F)c(C(=O)N2CCCC2)c1Cl [Example 2-152]
90%: Pre-emergence action against ALOMY ([2]; 80 g/ha) | Pre-emergence action against MATIN ([7]; 20 g/ha) | Pre-emergence action against POLCO ([10]; 320 g/ha) | Pre-emergence action against SETVI ([11]; 80 g/ha) | Post-emergence action against ALOMY ([16]; 20 g/ha) | Post-emergence action against LOLRI in % [23] | Post-emergence action against STEME in % ([26]; 20 g/ha) | Post-emergence action against STEME in % ([26]; 80 g/ha)
80%: Pre-emergence action against CYPES ([5]; 80 g/ha) | Pre-emergence action against HORMU [8] | Pre-emergence action against POLCO ([10]; 80 g/ha) | Pre-emergence action against VERPE ([13]; 80 g/ha) | Post-emergence action against ABUTH ([15]; 5 g/ha) | Post-emergence action against ABUTH ([15]; 20 g/ha) | Post-emergence action against ABUTH ([15]; 80 g/ha) | Post-emergence action against ALOMY ([16]; 5 g/ha) | Post-emergence action against AVEFA in % ([18]; 5 g/ha) | Post-emergence action against CYPES in % [19] | Post-emergence action against MATIN in % ([21]; 5 g/ha) | Post-emergence action against MATIN in % ([21]; 20 g/ha) | Post-emergence action against PHBPU in % ([22]; 20 g/ha) | Post-emergence action against PHBPU in % ([22]; 80 g/ha) | Post-emergence action against POLCO in % [24] | Post-emergence action against SETVI in % ([25]; 20 g/ha) | Post-emergence action against STEME in % ([26]; 5 g/ha) | Post-emergence action against VERPE in % ([27]; 5 g/ha) | Post-emergence action against VERPE in % ([27]; 20 g/ha) | Post-emergence action against VERPE in % ([27]; 80 g/ha)
100%: Pre-emergence action against ABUTH ([1]; 20 g/ha) | Pre-emergence action against ABUTH ([1]; 80 g/ha) | Pre-emergence action against ABUTH ([1]; Dosage column 320 g/ha (heading prints 3200 g/ha)) | Pre-emergence action against ALOMY ([2]; 320 g/ha) | Pre-emergence action against AMARE ([3]; 20 g/ha) | Pre-emergence action against AMARE ([3]; 80 g/ha) | Pre-emergence action against AMARE ([3]; 320 g/ha) | Pre-emergence action against AVEFA ([4]; 80 g/ha) | Pre-emergence action against AVEFA ([4]; 320 g/ha) | Pre-emergence action against CYPES ([5]; 320 g/ha) | Pre-emergence action against ECHCG [6] | Pre-emergence action against MATIN ([7]; 80 g/ha) | Pre-emergence action against MATIN ([7]; 320 g/ha) | Pre-emergence action against LOLRI [9] | Pre-emergence action against SETVI ([11]; 320 g/ha) | Pre-emergence action against STEME ([12]; 20 g/ha) | Pre-emergence action against STEME ([12]; 80 g/ha) | Pre-emergence action against STEME ([12]; 320 g/ha) | Pre-emergence action against VERPE ([13]; 320 g/ha) | Pre-emergence action against VIOTR [14] | Post-emergence action against ALOMY ([16]; 80 g/ha) | Post-emergence action against AMARE in % ([17]; 5 g/ha) | Post-emergence action against AMARE in % ([17]; 20 g/ha) | Post-emergence action against AMARE in % ([17]; 80 g/ha) | Post-emergence action against AVEFA in % ([18]; 20 g/ha) | Post-emergence action against AVEFA in % ([18]; 80 g/ha) | Post-emergence action against ECHCG in % ([20]; 20 g/ha) | Post-emergence action against ECHCG in % ([20]; 80 g/ha) | Post-emergence action against MATIN in % ([21]; 80 g/ha) | Post-emergence action against SETVI in % ([25]; 80 g/ha) | Post-emergence action against VIOTR in % ([28]; 20 g/ha) | Post-emergence action against VIOTR in % ([28]; 80 g/ha)
